Reference: US9326972B2, “Use of phenylmethimazoles, methimazole derivatives, and tautomeric cyclic thiones for the treatment of autoimmune/inflammatory diseases associated with toll-like receptor overexpression” (Ohio University, priority 2004, dated 2016)

What was measured:
TLR4 signaled genes = test: Gene expression in organs of LPS-treated mice (Northern, RT-PCR); format: in vivo, mouse
Stat1 = test: Activated Stat1 in kidney and lung lysates of LPS-treated mice (immunoblot); format: in vivo, mouse; conditions: LPS-treated mice of Table 5
Excerpt: In order to more definitively determine if LPS-induced IFN-β signaling and LPS-induced increases in IRF-1 and IP-10 in vivo might be attenuated by an effect of C10 treatment on Stat1 activation, protein phosphorylation levels of Stat1 in whole tissue lysates were examined in mice from Table 5. […] In contrast neither LPS nor C10 had any effect on total Stat1 in these tissues (FIG. 8, bottom blots). […] Based on literature studies described in immune cells and results we have described in nonimmune cells (FIGS. 4-6; Tables 2, 3), it is reasonable to state that C10 blocks Stat1/IRF-1 signals in vivo as well as in vitro, this is important in the therapy of toxic shock where these genes are not only involved but critical to disease expression. C10 therapy is thus important in reducing pathologic changes in multiple tissues whose organ failure is known to contribute to the signs and symptoms of toxic shock.
Immunoblot analysis of RAW 264.7 and mouse tissues: Nuclear and cytoplasmic extracts for RAW cells were prepared using NE-PER® extraction reagents (Pierce, Rockford, Ill.) in the presence of a protease inhibitor mixture (PMSF, leupeptin, and pepstatin A). […] Binding of HRP-conjugated goat anti-rabbit Ab (sc-2054; Santa Cruz Biotechnology, Inc., Santa Cruz, Calif.) was detected using the ECLplus Western Blotting Detection System (Amersham Biosciences, Piscataway, N.J.).

mice = test: Colitis model in mice (DSS); format: in vivo, mouse; conditions: 10 animals, 0.1 mg/kg, 14 days
MHC gene expression = conditions: cited from earlier work

Question: For `Cn1c(-c2ccccc2)cnc1S` [Compound C10, 5-Phenylmethimazole], which “pro-inflammatory cytokine gene expression (TNF α, IL-1β, IL-6, IL-12, IFN γ) in spleen, liver, lung, kidney, heart” value (TLR4 signaled genes; LPS injected mice at 24 hours, Northern) is on record?
Answer: suppressed

Question: What about the “LPS-induced over-expression of IRF-1, IP-10 and MCP-1 RNA in organs” value (TLR4 signaled genes; LPS-treated mice of Table 5, Northern) of the same compound?
Answer: suppressed

Question: And the “LPS-elevated COX-2 RNA levels” value (TLR4 signaled genes; kidney, liver and lung, RT-PCR)?
Answer: completely suppressed and returned to normal

Question: And the “LPS-down-regulated COX-1 RNA levels” value (TLR4 signaled genes; organs of LPS treated mice, RT-PCR)?
Answer: returned RNA levels to the normal levels

Question: What about the “LPS-increased iNOS RNA levels” value (TLR4 signaled genes; spleen, liver, lung, kidney, heart, RT-PCR) of the same compound?
Answer: suppressed

Question: And the “activated (phosphorylated) Stat1 protein levels in kidney and lung” value (Stat1)?
Answer: reduced to basal

Question: And the “Survival % of Control” value (mice; Ip freshly diluted in DMSO)?
Answer: 100%

Question: What about the “Survival % of Control” value (mice; Oral stored in excipient 1 week) of the same compound?
Answer: 100%

Question: And the “potency in suppressing MHC gene expression relative to MMI” value (MHC gene expression)?
Answer: 50-100 fold
